Broadly, the CC50 is the concentration giving 50% cytotoxicity. Higher therefore signals lower toxicity to the cells.

The nature of series [1]: General cytotoxicity on primary differentiated HepaRG cells (72 h). It is filed as cell-based. The following applies: human, general toxicity, mean value from several measurements. The text has this:
General cytotoxicity of CDK7 inhibitors according to the present invention was investigated using primary differentiated HepaRG cells (Biopredic Int, order no. HPR101). A week before the measurement, the cells were thawed and maintained in Basal hepatic cell medium (Biopredic Int, order no. MIL700079) supplemented with HepaRG maintenance/metabolism medium supplement with antibiotics (Biopredic Int, order no. ADD620C). The medium in vials with cells was changed every 2-3 days. The night before the test, the cells were plated in wells of 96-well plates (Corning Inc., order no. 3599) at 25×10^3 cells in 100 μl of medium per well. The next day, test compounds were introduced into plate wells with cells, untitrated at a concentration ranging from 200 μM to 0.2 nM, and incubated for 72 hours. Cell viability was assessed as described above.

Series [2] has as its target CDK7/Cyclin H/MNAT1 (Homo sapiens, UniProt P50613). Kind of series: Inhibition of CDK7/Cyclin H/MNAT1 kinase activity (ADP-Glo). The conditions noted are these: mean value from several measurements; read-out: IC50 CDK7/Cyclin H/MNAT. It is filed as biochemical. On the procedure:
(§1) Measurements were carried out in a 5 μl reaction volume using a 384-well plate (Corning Inc., order no. 4513). The analyzed substances were titrated from 50 μM in increments of 4 at 11 concentration points in a normal strength kinase buffer A (Thermo Fisher Scientific Inc, cat. no. PV3189) supplemented with DTT (Sigma, orde. no. 646563-10X.5ML) and prepared with water (Panreac, order no. 701074). Kinase was diluted in an analogous buffer, mixed with test compounds in plate wells and preincubated for 10 minutes at 25° C. Following incubation, a mixture of reaction substrate (CDKtide (SignalChem, order no. C06-58) or Histone H1 (SignalChem, order no. H10-54N) or PDKtide (SignalChem, order no. P10-58) and ATP (SignalChem, order no. V915B) prepared on a normal strength kinase buffer A was added. 1% solution of dimethyl sulfoxide (DMSO) (Sigma-Aldrich, order no. D2438) in the reaction volume was used as a negative control. The final concentrations of all reaction components are shown in Table 5. The plate was centrifuged at 400 rcf (Eppendorf, 5804 R) for 1 minute and incubated for 40-60 minutes at 25° C. The amount of ATP consumed in the kinase reaction was then measured using the ADP-Glo™ detection system. Luminescence signal was measured using Spark 20M tablet multifunction reader (Tecan Group Ltd, Switzerland). IC50 value was calculated using Magellan 7.2 (Tecan Group Ltd, Switzerland) by approximating experimental points by four-parameter model with the optimization by Levenberg-Marquardt:
(§2) [formula] • where A is the upper asymptote; D is the lower asymptote; C is IC50, half-maximal inhibitory concentration of kinase, nM; B is the curvature (slope).
A general note: ADP-Glo first removes unused ATP, then detects ADP through luciferase.

In series [3] the target is CDK9/Cyclin K (Homo sapiens, UniProt P50750). Kind of series: Inhibition of CDK9/Cyclin K kinase activity (ADP-Glo). The conditions noted are these: mean value from several measurements; read-out: IC50 CDK9/Cyclin K. In kind it is biochemical. On the procedure:
as §1, §2

The target of series [4] is CDK2/Cyclin A (Homo sapiens, UniProt P24941). Kind of series: Inhibition of CDK2/Cyclin A kinase activity (ADP-Glo). In kind it is biochemical. The conditions noted are these: mean value from several measurements; read-out: IC50 CDK2/Cyclin A. On the procedure: as §1, §2
Series [5] relates to MDA-MB-468 (triple negative breast cancer). The series can be described thus: Antiproliferative assay on MDA-MB-468 cells (AlamarBlue, 96 h). In kind it is cell-based. The following applies: Homo sapiens, mean value from several measurements. On the procedure: The antiproliferative activity of CDK7 inhibitors according to the present invention was evaluated in a cell test using continuous cell cultures: MDA-MB-468 (triple negative breast cancer, ATCC® HTB-132™) and NCl-H82 (small cell lung cancer, ATCC® HTB-175™) using a viable AlamarBlue dye (Thermo Fisher Scientific Inc, order no. DAL1100). The cells were grown in DMEM (PanEco, order no. C330π) and RPMI-1640 (PanEco, order no. C330π), respectively. The basal growth medium was enriched with L-glutamine at a concentration of 2 mM (PanEco, order no. Φ032) and 10% fetal bovine serum (Gibco, order no. 16140-071). The night before measurement, MDA-MB-468 adherent cells were detached from plastic with a solution of trypsin-EDTA (PanEco, order no. Π039π), the solution was then inactivated by a DMEM complete medium, centrifuged at 1000 RPM (Eppendorf, 5804 R), a suspension of cells was prepared in a DMEM complete medium, introduced into 96-well culture plates (Corning Inc, order no. 3599) at 8×10^3 cells in 100 μl of medium per well. The next day, test compounds were dissolved in DMSO and diluted with a DMEM complete medium to a final concentration ranging from 50 μM to 10 pM. Diluted compounds in a volume of 50 μl were introduced into the plate wells with cells in triplicates (the final concentration of DMSO was no more than 1%) and incubated at 37° C. in an incubator with 5% CO2 for 96 hours. NCl-H82 suspension cell line was prepared on the day of the analysis. 10×10^3 cells in 100 μl of an RPMI-1640 complete medium were added to each well of a 96-well plate. The procedure for sample dilution is as described above. Cells with test compounds were incubated at 37° C. in an incubator with 5% CO2 for 120 hours. Following incubation, […] of AlamarBlue reagent (Thermo Fisher Scientific Inc., order no. DAL1100) was added to the wells, the contents of the plates were stirred in an orbital shaker (Biosan, Latvia), then further incubated for 5.5-6 hours at 37° C. in an incubator with 5% CO2. The number of viable cells was detected using the Infinite M200Pro microplate spectrophotometer (Tecan Group Ltd, Switzerland) by way of measuring a fluorescent signal at an excitation wavelength (λEx) of 540 nm and an emission wavelength (λEm) of 590 nm.
IC50 value was calculated using the Magellan software (Tecan Group Ltd, Switzerland) by approximating experimental points by four-parameter model with the optimization by Levenberg-Marquardt: […]
For orientation: Alamar Blue is a resazurin reagent that responds to reducing activity.

CDK7/Cyclin H/MNAT1, sequence (P50613 whole entry): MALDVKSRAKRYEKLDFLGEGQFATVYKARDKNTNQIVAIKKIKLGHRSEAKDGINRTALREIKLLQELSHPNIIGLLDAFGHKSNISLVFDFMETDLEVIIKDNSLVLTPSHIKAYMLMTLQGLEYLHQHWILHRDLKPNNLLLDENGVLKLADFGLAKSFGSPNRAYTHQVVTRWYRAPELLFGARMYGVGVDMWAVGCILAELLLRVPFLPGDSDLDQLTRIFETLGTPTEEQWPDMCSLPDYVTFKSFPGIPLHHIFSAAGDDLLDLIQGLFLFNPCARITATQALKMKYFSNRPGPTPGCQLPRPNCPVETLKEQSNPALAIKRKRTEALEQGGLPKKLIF
CDK7/Cyclin H/MNAT1, sequence (P51946 whole entry partner): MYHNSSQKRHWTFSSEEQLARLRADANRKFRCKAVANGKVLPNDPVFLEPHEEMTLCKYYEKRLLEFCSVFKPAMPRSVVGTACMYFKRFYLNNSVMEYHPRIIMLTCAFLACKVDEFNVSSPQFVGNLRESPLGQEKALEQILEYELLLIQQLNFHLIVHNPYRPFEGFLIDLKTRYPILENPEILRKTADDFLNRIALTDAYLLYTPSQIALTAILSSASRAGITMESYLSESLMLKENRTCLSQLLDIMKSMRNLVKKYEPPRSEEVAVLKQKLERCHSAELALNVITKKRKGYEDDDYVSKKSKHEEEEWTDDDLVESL
CDK7/Cyclin H/MNAT1, sequence (P51948 whole entry partner): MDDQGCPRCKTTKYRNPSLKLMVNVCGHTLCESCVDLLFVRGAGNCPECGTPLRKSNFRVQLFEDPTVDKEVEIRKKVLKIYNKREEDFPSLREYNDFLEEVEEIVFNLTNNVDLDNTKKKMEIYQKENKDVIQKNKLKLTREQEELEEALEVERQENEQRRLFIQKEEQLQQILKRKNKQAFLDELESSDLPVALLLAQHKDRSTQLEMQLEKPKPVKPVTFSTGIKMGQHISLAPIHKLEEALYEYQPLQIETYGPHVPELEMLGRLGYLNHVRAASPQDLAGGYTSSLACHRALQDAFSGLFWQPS
CDK9/Cyclin K, sequence (P50750 whole entry): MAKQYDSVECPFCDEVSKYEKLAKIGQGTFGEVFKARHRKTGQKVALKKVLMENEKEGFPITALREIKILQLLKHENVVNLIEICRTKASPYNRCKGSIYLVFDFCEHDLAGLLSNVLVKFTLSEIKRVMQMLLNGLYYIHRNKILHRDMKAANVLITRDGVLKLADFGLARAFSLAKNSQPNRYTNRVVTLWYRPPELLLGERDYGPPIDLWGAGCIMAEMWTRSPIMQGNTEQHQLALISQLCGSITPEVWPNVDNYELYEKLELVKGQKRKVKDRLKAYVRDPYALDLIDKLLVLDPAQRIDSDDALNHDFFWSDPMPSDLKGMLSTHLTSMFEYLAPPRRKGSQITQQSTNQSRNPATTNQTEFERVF
CDK9/Cyclin K, sequence (O75909 whole entry partner): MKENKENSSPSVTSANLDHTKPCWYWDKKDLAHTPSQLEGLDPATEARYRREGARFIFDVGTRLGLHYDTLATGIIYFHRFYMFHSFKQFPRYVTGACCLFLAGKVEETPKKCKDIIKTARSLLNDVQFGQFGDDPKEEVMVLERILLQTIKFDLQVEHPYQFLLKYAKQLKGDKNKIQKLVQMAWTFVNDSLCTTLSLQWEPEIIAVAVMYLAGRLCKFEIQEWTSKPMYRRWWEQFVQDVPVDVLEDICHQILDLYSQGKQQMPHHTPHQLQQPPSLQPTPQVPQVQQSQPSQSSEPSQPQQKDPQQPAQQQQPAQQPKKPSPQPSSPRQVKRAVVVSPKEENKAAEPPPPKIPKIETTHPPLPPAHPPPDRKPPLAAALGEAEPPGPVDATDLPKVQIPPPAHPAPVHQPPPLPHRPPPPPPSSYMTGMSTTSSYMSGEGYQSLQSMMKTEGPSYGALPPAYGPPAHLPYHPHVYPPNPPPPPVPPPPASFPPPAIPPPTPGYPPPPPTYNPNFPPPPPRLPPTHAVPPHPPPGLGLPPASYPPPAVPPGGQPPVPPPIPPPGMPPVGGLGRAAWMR

Consider `O=C(Nc1ccncc1)c1cc(-c2nc(N[C@H]3CCCNC3)ncc2C(F)(F)F)c[nH]1` [CDK7_836, 4-(2-{[(3S)-piperidin-3-yl]amino}-5-(trifluoromethyl)pyrimidin-4-yl)-N-(pyridin-4-yl)-1H-pyrrole-2-carboxamide], for which the CC50 at 72 h in series [1] lay in the range of 500 to 2000 nM. Further, the IC50 in series [2] is 5 to 50 nM; in series [3], 50 to 200 nM; in series [4], above 200 nM; in series [5], 100 to 1000 nM.

With `CN(Cc1ccccc1)C(=O)c1cc(-c2nc(N[C@H]3CCCNC3)ncc2C(F)(F)F)c[nH]1` [CDK7_998, N-benzyl-N-methyl-4-(2-{[(3S)-piperidin-3-yl]amino}-5-(trifluoromethyl)pyrimidin-4-yl)-1H-pyrrole-2-carboxamide], the cytotoxic concentration (CC50) at 72 h in series [1] was above 2000 nM. Also, the IC50 is 5 to 50 nM in series [2], above 200 nM in series [3], above 200 nM in series [4] and above 1000 nM in series [5].

For `CN(C)C(=O)c1nc(-c2nc(N[C@H]3CCCNC3)ncc2C(F)(F)F)c[nH]1` [CDK7_966, N,N-dimethyl-4-(2-{[(3S)-piperidin-3-yl]amino}-5-(trifluoromethyl)py-rimidin-4-yl)-1H-imidazole-2-carboxamide], the half-maximal cytotoxic concentration (CC50) at 72 h in series [1] was above 2000 nM. The IC50 in series [2] was 5 to 50 nM; in series [3], above 200 nM; in series [4], above 200 nM; in series [5], 100 to 1000 nM.

In series [1], `O=C(c1cc(-c2nc(N[C@H]3CCCNC3)ncc2C(F)(F)F)c[nH]1)N1CCOCC1` [CDK7_849, 4-[5-(morpholine-4-carbonyl)-1H-pyrrol-3-yl]-N-[(3S)-piperidin-3-yl]-5-(trifluoromethyl) pyrimidin-2-amine] had a CC50 at 72 h of 500 to 2000 nM. In addition, the IC50 in series [2] is below 5 nM; in series [3], 50 to 200 nM; in series [4], above 200 nM; in series [5] it was 10 to 100 nM.

In series [1], `O=C(c1ccccc1)c1cc(-c2nc(N[C@H]3CCCNC3)ncc2C(F)(F)F)c[nH]1` [CDK7_535, 4-(5-benzoyl-1H-pyrrol-3-yl)-N-[(3S)-piperidin-3-yl]-5-(trifluoromethyl) pyrimidin-2-amine] registered a CC50 at 72 h above 2000 nM. For the same compound, the IC50 in series [2] is 5 to 50 nM; in series [3] it was 50 to 200 nM; in series [4], above 200 nM; in series [5], 100 to 1000 nM.

For `CN(C(=O)c1cc(-c2nc(N[C@H]3CCCNC3)ncc2C(F)(F)F)c[nH]1)c1nccs1` [CDK7_1003, N-methyl-4-(2-{[(3S)-piperidin-3-yl]amino}-5-(trifluoromethyl)pyrimidin-4-yl)-N-(1,3-thiazol-2-yl)-1H-pyrrole-2-carboxamide], in series [1], the CC50 at 72 h was in the range of 500 to 2000 nM. For the same compound, the IC50 in series [2] is 5 to 50 nM; in series [3], 50 to 200 nM; in series [4], above 200 nM; in series [5] it was 100 to 1000 nM.

Turning to `O=C(Nc1ccccc1)c1cc(-c2nc(N[C@H]3CCCNC3)ncc2C(F)(F)F)c[nH]1` [CDK7_538, N-phenyl-4-(2-{[(3S)-piperidin-3-yl]amino}-5-(trifluoromethyl)pyrimidin-4-yl)-1H-pyrrole-2-carboxamide], the 50% cytotoxic concentration (CC50) at 72 h in series [1] is 500 to 2000 nM. For the same compound, the IC50 in series [2] was 5 to 50 nM; in series [3], 50 to 200 nM; in series [4], above 200 nM; in series [5], 100 to 1000 nM.

With `NC(=O)c1cc(-c2nc(N[C@H]3CCCNC3)ncc2C(F)(F)F)c[nH]1` [CDK7_537, 4-(2-{[(3S)-piperidin-3-yl]amino}-5-(trifluoromethyl)pyrimidin-4-yl)-1H-pyrrole-2-carboxamide], the 50% cytotoxic concentration (CC50) at 72 h in series [1] lay within 100 to 500 nM. Moreover, the IC50 in series [2] was 5 to 50 nM; in series [3], 5 to 50 nM; in series [4], above 200 nM; in series [5] it was 100 to 1000 nM.

Regarding `FC(F)(F)c1cnc(N[C@H]2CCCNC2)nc1-c1cc[nH]c1` [CDK7_972, N-[(3S)-piperidin-3-yl]-4-(1H-pyrrol-3-yl)-5-(trifluoromethyl)py-rimidin-2-amine], the CC50 at 72 h in series [1] lay in the range of 500 to 2000 nM. For the same compound, the IC50 was 5 to 50 nM in series [2], 50 to 200 nM in series [3], above 200 nM in series [4] and 100 to 1000 nM in series [5].

In series [1], `CN(C(=O)c1cc(-c2nc(N[C@H]3CCCNC3)ncc2C(F)(F)F)c[nH]1)C1CC1` [CDK7_1001, N-cyclopropyl-N-methyl-4-(2-{[(3S)-piperidin-3-yl]amino}-5-(trifluoromethyl)pyrimidin-4-yl)-1H-pyrrole-2-carboxamide] came in with a CC50 at 72 h of 500 to 2000 nM. Further, the IC50 is below 5 nM in series [2], 5 to 50 nM in series [3], above 200 nM in series [4] and 100 to 1000 nM in series [5].

`CN1CCN(C(=O)c2cc(-c3nc(N[C@H]4CCCNC4)ncc3C(F)(F)F)c[nH]2)CC1` [CDK7_539, 4-[5-(4-methylpiperazine-1-carbonyl)-1H-pyrrol-3-yl]-N-[(3S)-piperidin-3-yl]-5-(trifluoromethyl) pyrimidin-2-amine] yielded a CC50 at 72 h in series [1] above 2000 nM. In addition, the IC50 in series [2] is 5 to 50 nM; in series [3], 50 to 200 nM; in series [4], above 200 nM; in series [5] it was 100 to 1000 nM.

`CS(=O)(=O)CCNC(=O)c1cc(-c2nc(N[C@H]3CCCNC3)ncc2C(F)(F)F)c[nH]1` [CDK7_848, N-(2-methanesulfon-ylethyl)-4-(2-{[(3S)-piperidin-3-yl]amino}-5-(trifluoromethyl)pyrimidin-4-yl)-1H-pyrrole-2-carboxamide] displayed a half-maximal cytotoxic concentration (CC50) at 72 h in series [1] above 2000 nM. The IC50 was 5 to 50 nM in series [2], 5 to 50 nM in series [3], above 200 nM in series [4] and above 1000 nM in series [5].

On to `O=C(NC1CCC(O)CC1)c1cc(-c2nc(N[C@H]3CCCNC3)ncc2C(F)(F)F)c[nH]1` (stereo partly drawn) [CDK7_851, N-(4-hydroxycyclo-hexyl)-4-(2-{[(3S)-piperidin-3-yl]amino}-5-(trifluoromethyl)pyrimidin-4-yl)-1H-pyrrole-2-carboxamide], for which the CC50 at 72 h in series [1] was above 2000 nM. In addition, the IC50 is 5 to 50 nM in series [2], 50 to 200 nM in series [3], above 200 nM in series [4] and above 1000 nM in series [5].
